Experimental data published in patent publication US12281304B2, “Compositions and methods for treating and preventing muscular disorders and dystrophies, steroid side effects, and inflammation” (Children's National Medical Center, priority 2018, dated 2025).

Tested on: miRNAs in diaphragm muscle of mdx mice
Assay: TaqMan low-density array (TLDA) miRNA profiling of diaphragm, discovery set (prophylactic mdx trial)
Assay type: in vivo, mouse
Text: Archival muscle samples (diaphragm) from two separate preclinical studies were obtained, with each trial showing a significant benefit from both prednisolone and vamorolone drug treatments (23). Prednisolone was used because it is the active form of prednisone, the current DMD standard of care. The first, “discovery set” of diaphragm muscles was from a prophylactic trial design where 2-week old (postnatal day 15) mdx or wild type control mice received oral dosing for 6 weeks with vehicle (cherry syrup), prednisolone (5 mg/kg), or vamorolone (15 mg/kg) as previously reported (23). The second, “validation set” of diaphragm muscles was from an extended trial in older mice where mdx or wild type mice were subjected to treadmill running to unmask mild phenotypes. Mice in this validation set were treated with either vehicle, prednisolone (5 mg/kg) or vamorolone (45 mg/kg) for four months beginning at two months of age (23). At the endpoint of each trial, diaphragm muscles were harvested and frozen in liquid nitrogen-cooled isopentane.
We extracted total RNA from 5 diaphragm muscles per treatment group in the discovery set of samples from 8-week old mice. RNA was extracted using a modified TRIzol protocol with isopropanol precipitation at −20° C. overnight. This RNA was reverse transcribed to cDNA using a High Capacity cDNA Reverse Transcription Kit with RNase Inhibitor (ThermoFisher; Carlsbad, Calif.), with miRNA-specific Megaplex RT Primers, Rodent Pools Set version 3.0 (ThermoFisher; Carlsbad, Calif.). Levels of each of the miRNAs were profiled in the discovery set using TAQMAN Array Rodent MiRNA A+B Cards Set v3.0 (ThermoFisher; Carlsbad, Calif.).
In the discovery set experiments, levels of each miRNA were quantified in TaqMan low-density arrays using ThermoFisher Cloud software with the Relative Quantification Application (ThermoFisher; Carlsbad, Calif.) tool. Data was analyzed by ANOVA with post-hoc comparison of each group to the mdx vehicle-treated group. […] A P-value of P≤0.05 was set as the significance threshold, without adjustment for multiple comparisons. To reduce false-positive discovery in this setting, an evidence-based approach was used to identify efficacy associated miRNAs where 1) results from the multiple groups were cross-referenced, and 2) all candidate miRNAs identified in this discovery set were then assayed in a separate validation set of mice. For the validation set experiments, levels of each individual miRNA were assayed in samples from a second, independent preclinical trial in adult mdx mice. Data from individual TaqMan Assays was quantified using QuantStudio Real-Time PCR version 1.3 software (Applied Biosystems; Foster City, Calif.). The levels of all miRNAs were normalized to the geometric mean of multiple control genes (60, 70). Comparison of groups was made by ANOVA with Holm-Sidak post-hoc test comparing each group to mdx vehicle.
To visualize behavior of miRNAs within individual mice for each group, heat map images were generated. Heat maps were generated using Rq values of TLDA array data exported from the Relative Quantification Application of the ThermoFisher Cloud software (ThermoFisher; Carlsbad, Calif.) tool. Heat maps of miRNA expression were produced using Hierarchical Clustering Explorer Version 3.5 (at www.cs.umd.edu/hcil/multi-cluster/) produced by the Human Computer Interaction Laboratory (University of Maryland; College Park, Md.).
To examine miRNA expression TaqMan low density qPCR array cards were used to profile approximately 750 miRNAs within diaphragm muscle from a discovery set of mice. Samples for this experiment came from a trial that utilized a prophylactic approach (23). Briefly, mdx mice undergo a stage of peak severity characterized by widespread inflammation and necrosis from approximately 3-8 weeks of age, followed by a recovery stage where mice show milder phenotypes (25). […]

[1] = discovery set diaphragm muscle, mdx mice, Pred 5 mg/kg, Vam 15 mg/kg
[2] = mdx diaphragm, vs untreated mdx, Pred 5 mg/kg, Vam 15 mg/kg

## C[C@@H]1C[C@H]2[C@@H]3CCC4=CC(=O)C=C[C@]4(C)C3=CC[C@]2(C)[C@@]1(O)C(=O)CO [vamorolone]
[1]
  miRNA 142-3p % expression in comparison to mdx vehicle: 65 ± 20 %
  miRNA 142-5p % expression in comparison to mdx vehicle: 61 ± 23 %
  miRNA 146a % expression in comparison to mdx vehicle: 52 ± 12 %
  miRNA 301a % expression in comparison to mdx vehicle: 77 ± 12 %
  miRNA 324-3p % expression in comparison to mdx vehicle: 75 ± 13 %
  miRNA 455-3p % expression in comparison to mdx vehicle: 61 ± 14 %
  miRNA 455-5p % expression in comparison to mdx vehicle: 64 ± 15 %
  miRNA 497 % expression in comparison to mdx vehicle: 65 ± 11 %
  miRNA 652 % expression in comparison to mdx vehicle: 64 ± 18 %
Mdx diaphragm, 8-week-old mice, oral dosing 6 weeks, prednisolone 5 mg/kg, vamorolone 15 mg/kg, versus untreated mdx, P≤0.05
  number of miRNAs significantly changed in dystrophic muscle: 41
Mdx diaphragm, discovery set, prednisolone 5 mg/kg, vamorolone 15 mg/kg, P≤0.05
  number of miRNAs significantly increased by treatment: none of the miRNAs queried in the TLDA cards were significantly increased
Mdx diaphragm, discovery set, versus mdx vehicle
  expression of the nine efficacy-associated miRNAs elevated in dystrophy: returned towards healthy wild type levels
[2]
  Rq hsa-let-7i#-002172: 0.939
  Rq hsa-miR-30e-3p-000422: 0.849
  Rq hsa-miR-22#-002301: 0.78
  Rq hsa-miR-140-3p-002234: 0.903
  Rq hsa-miR-143-000466: 1.29
  Rq hsa-miR-154#-000478: 0.689
  Rq hsa-miR-190b-002263: 0.822
  Rq hsa-miR-200c-000505: 0.453
  Rq hsa-miR-206-000510: 0.983
  Rq hsa-miR-213-000516: 0.839
  Rq hsa-miR-214#-002293: 0.889
  Rq hsa-miR-214-000517: 0.994
  Rq hsa-miR-376a#-001287: 0.845
  Rq hsa-miR-455-001280: 0.637
  Rq hsa-miR-744#-002325: 0.816
  Rq mmu-let-7e-002406: 0.665
  Rq mmu-let-7a-000377: 0.667
  Rq mmu-let-7b-000378: 0.754
  Rq mmu-let-7c-1#-002479: 1.038
  Rq mmu-let-7c-000379: 0.691
  Rq mmu-let-7i-002221: 0.777
  Rq mmu-let-7d#-001178: 0.61
  Rq mmu-let-7d-002283: 0.789
  Rq mmu-miR-1-002222: 0.897
  Rq mmu-miR-15a-000389: 0.719
  Rq mmu-miR-16-000391: 0.781
  Rq mmu-miR-18a-002422: 1.288
  Rq mmu-miR-19a-000395: 0.886
  Rq mmu-miR-20a#-002491: 0.825
  Rq mmu-miR-21#-002493: 0.647
  Rq mmu-miR-21-000397: 0.677
  Rq mmu-miR-23b-000400: 0.675
  Rq mmu-miR-25-000403: 0.867
  Rq mmu-miR-26a-000405: 0.766
  Rq mmu-miR-27b-000409: 0.82
  Rq mmu-miR-28-000411: 0.842
  Rq mmu-miR-30e-002223: 0.847
  Rq mmu-miR-30a-000417: 0.834
  Rq mmu-miR-30b-000602: 0.855
  Rq mmu-miR-30c-000419: 0.818
  Rq mmu-miR-31#-002495: 0.821
  Rq mmu-miR-31-000185: 1.032
  Rq mmu-miR-34a-000426: 0.789
  Rq mmu-miR-34b-3p-002618: 0.798
  Rq mmu-miR-34c#-002584: 0.748
  Rq mmu-miR-34c-000428: 0.811
  Rq mmu-miR-99b-000436: 0.913
  Rq mmu-miR-100-000437: 0.721
  Rq mmu-miR-103-000439: 0.628
  Rq mmu-miR-122-002245: 0.072
  Rq mmu-miR-125a-3p-002199: 0.828
  Rq mmu-miR-125b#-002508: 0.803
  Rq mmu-miR-125b-3p-002378: 0.866
  Rq mmu-miR-125b-5p-000449: 0.682
  Rq mmu-miR-126-3p-002228: 0.809
  Rq mmu-miR-126-5p-000451: 0.812
  Rq mmu-miR-127-000452: 1.107
  Rq mmu-miR-128a-002216: 0.847
  Rq mmu-miR-130a-000454: 0.717
  Rq mmu-miR-130b#-002460: 1.164
  Rq mmu-miR-130b-000456: 0.88
  Rq mmu-miR-133a-002246: 0.996
  Rq mmu-miR-134-001186: 1.353
  Rq mmu-miR-136-002511: 0.942
  Rq mmu-miR-138#-002554: 0.384
  Rq mmu-miR-140-001187: 0.818
  Rq mmu-miR-142-3p-000464: 0.626
  Rq mmu-miR-142-5p-002248: 0.576
  Rq mmu-miR-143-002249: 0.716
  Rq mmu-miR-145-002278: 0.722
  Rq mmu-miR-146a-000468: 0.513
  Rq mmu-miR-146b#-002453: 0.275
  Rq mmu-miR-146b-001097: 0.645
  Rq mmu-miR-148a-000470: 0.496
  Rq mmu-miR-148b-000471: 0.568
  Rq mmu-miR-150#-002570: 0.293
  Rq mmu-miR-150-000473: 0.692
  Rq mmu-miR-151-3p-001190: 0.971
  Rq mmu-miR-152-000475: 0.785
  Rq mmu-miR-154-000477: 0.898
  Rq mmu-miR-155-002571: 0.876
  Rq mmu-miR-181a-000480: 0.773
  Rq mmu-miR-181c-000482: 0.71
  Rq mmu-miR-185-002271: 0.886
  Rq mmu-miR-186-002285: 0.994
  Rq mmu-miR-191-002299: 0.815
  Rq mmu-miR-193#-002577: 0.682
  Rq mmu-miR-195-000494: 0.669
  Rq mmu-miR-199a-3p-002304: 0.722
  Rq mmu-miR-199b-001131: 0.667
  Rq mmu-miR-200c-002300: 0.577
  Rq mmu-miR-203-000507: 0.521
  Rq mmu-miR-204-000508: 0.627
  Rq mmu-miR-210-000512: 0.746
  Rq mmu-miR-214-002306: 0.842
